In patent US20100010034A1, “CRTH2 ANTAGONISTS” (priority 2006, published 2010):

Experiments:
CRTH2 receptor [1] = molecular target: T1, CRTH2 receptor (Homo sapiens, UniProt Q9Y5Y4); experiment: CRTH2 Radioligand Binding assay ([3H]-PGD2 displacement, SPA); set-up: expressed in transfected cells; host or cells: HEK cell membranes; settings: HEK cell membranes expressing the CRTH2 receptor, 1 nM [3H]-PGD2; Ki from IC50 by Cheng-Prusoff
T1 sequence (Q9Y5Y4 1-395): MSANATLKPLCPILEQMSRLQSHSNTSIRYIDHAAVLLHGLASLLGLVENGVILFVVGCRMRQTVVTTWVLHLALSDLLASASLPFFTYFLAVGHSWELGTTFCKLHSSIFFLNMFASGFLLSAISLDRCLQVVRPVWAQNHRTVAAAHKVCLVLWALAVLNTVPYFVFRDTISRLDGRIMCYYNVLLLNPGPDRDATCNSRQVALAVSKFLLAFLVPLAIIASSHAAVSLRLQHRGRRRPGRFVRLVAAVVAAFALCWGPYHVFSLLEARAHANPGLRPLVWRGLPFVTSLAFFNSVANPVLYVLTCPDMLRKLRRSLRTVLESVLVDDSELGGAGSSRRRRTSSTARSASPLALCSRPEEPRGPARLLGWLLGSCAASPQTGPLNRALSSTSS
Protocol: Radioligand Binding Assay
The receptor binding assay is performed in a final volume of 200 μL binding buffer [10 mM BES (pH 7.4), 1 mM EDTA, 10 mM manganese chloride, 0.01% BSA] and 1 nM [^3H]-PGD2 (Amersham Biosciences UK Ltd). Ligands are added in assay buffer containing a constant amount of DMSO (1% by volume). Total binding is determined using 1% by volume of DMSO in assay buffer and non-specific binding is determined using 10 μM of unlabeled PGD2 (Sigma). Human embryonic kidney (HEK) cell membranes (3.5 μg) expressing the CRTH2 receptor are incubated with 1.5 mg wheatgerm agglutinin SPA beads and 1 nM [^3H]-PGD2 (Amersham Biosciences UK Ltd) and the mixture incubated for 3 hours at room temperature. Bound [^3H]-PGD2 is detected using a Microbeta TRILUX liquid scintillation counter (Perkin Elmer). Compound IC50 value is determined using a 6-point dose response curve in duplicate with a semi-log compound dilution series. IC50 calculations are performed using Excel and XLfit (Microsoft), and this value is used to determine a Ki value for the test compound using the Cheng-Prusoff equation.

[2] = rats, exogenously applied agonist (Shirashi et al 2005); cited from earlier work
CRTH2 receptor [3] = molecular target: T1, CRTH2 receptor; experiment: Calcium mobilisation (flux) functional assay; assay type: cell-based; set-up: expressed in transfected cells; settings: CHO-K1 cells co-expressing CRTH2 receptor and Gα16; PGD2 agonist at EC80
Protocol: Calcium Mobilisation (Flux) Assay
Stable CHO-K1 cells co-expressing the CRTH2 receptor and the G-protein Gα16 are seeded (40,000 cells per well in a plating volume of 75 μL in F-12 Hams supplemented with 1% foetal bovine serum) into collagen-coated 96-well plates 24 hours prior to the assay. The cells are then loaded with a fluorescence-imaging plate reader (FLIPR) calcium kit dye (Calcium 3 kit, Molecular Devices Ltd) containing 5 mM final concentration of probenecid and incubated at 37° C. for 1 hour in a 5 % CO2 atmosphere. The fluorescence emission caused by intracellular calcium mobilization elicited by the PGD2 at the CRTH2 receptor is determined with a FLEXstation benchtop scanning and integrated fluid transfer workstation (Molecular Devices Ltd). To detect antagonists and determine compound IC50, compounds are pre-incubated at varying concentrations with the loaded cells for 15 minutes at 37° C., 5 % CO2, prior to the addition of the agonist at its EC80 value. Compounds and agonist are added in Hanks balanced salt solution containing 20 mM HEPES and 0.1% BSA). The fractional response values for each well are calculated by subtracting the basal response from the peak response. Results are calculated as the mean of triplicate wells using Excel and XLfit (Microsoft).

Row | Compound | Ki (CRTH2 receptor [1]) [nM] | pulmonary eosinophilia [2] | IC50 (CRTH2 receptor [3]) [nM]
1 | Cc1c(CC(=O)O)c2ccc(C#N)cn2c1Cc1ccc(S(C)(=O)=O)cc1 [Example 10, [6-cyano-3-(4-methanesulfonylbenzyl)-2-methylindolizin-1-yl]acetic acid] | 1.7 |  | 
2 | Cc1c(CC(=O)O)c2cc(C#N)ccn2c1Sc1ccc(S(C)(=O)=O)cc1Cl [Example 9, [3-(2-chloro-4-methanesulfonylphenylsulfanyl)-7-cyano-2-methylindolizin-1-yl]acetic acid] | 2.9 |  | 
3 | Cc1c(CC(=O)O)c2cc(C#N)ccn2c1Cc1ccc(Cl)cc1 [Example 11, [3-(4-chlorobenzyl)-7-cyano-2-methylindolizin-1-yl]acetic acid] | 26 |  | 
4 | Cc1c(CC(=O)O)c2cc(Cl)c(F)cn2c1Sc1ccc(S(C)(=O)=O)cc1 [Example 8, [7-chloro-6-fluoro-3-(4-methanesulfonylphenylsulfanyl)-2-methylindolizin-1-yl]acetic acid] | 0.4 |  | 
5 | CCS(=O)(=O)Nc1ccc(S(=O)(=O)c2c(C)c(CC(=O)O)c3ccc(F)cn23)cc1 [Example 7] | 47 |  | 
6 | O=C(O)CCC/C=C\C[C@@H]1[C@@H](/C=C/[C@@H](O)COc2ccc(I)cc2)[C@H]2CC[C@@H]1O2 [I-BOP] |  | no effect | 
7 | Cc1c([C@H](C)C(=O)O)c2ccc(F)cn2c1Sc1ccc(S(C)(=O)=O)cc1 [Example 6, (S)-2-[6-fluoro-3-(4-methanesulfonylphenylsulfanyl)-2-methylindolizin-1-yl]propionic acid] | 57 |  | 
8 | Cc1c(CC(=O)O)c2ccc(F)cn2c1Sc1ccc(S(C)(=O)=O)cc1C(F)(F)F [Example 3, [6-fluoro-3-(4-methanesulfonyl-2-trifluoromethylphenylsulfanyl)-2-methylindolizin-1-yl]acetic acid] | 0.9 |  | 11
9 | Cc1c(CC(=O)O)c2ccc(F)cn2c1Sc1ccc(S(C)(=O)=O)cc1F [Example 2, [6-fluoro-3-(2-fluoro-4-methanesulfonylphenylsulfanyl)-2-methylindolizin-1-yl]acetic acid] | 0.2 |  | 6.6
10 | O=C(O)CCCCCCC1C(=O)NC(=O)N1CCC(O)C1CCCCC1 (stereo not drawn) [BW 245C] |  | no effect | 
11 | Cc1c([C@@H](C)C(=O)O)c2ccc(F)cn2c1Sc1ccc(S(C)(=O)=O)cc1 [Example 4, (R)-2-[6-fluoro-3-(4-methanesulfonylphenylsulfanyl)-2-methylindolizin-1-yl]propionic acid] | 29 |  | 
12 | Cc1c(CC(=O)O)c2ccc(F)cn2c1Sc1ccc(Cl)cc1Cl [Example 1, [3-(2,4dichlorophenylsulfanyl)-6-fluoro-2-methylindolizin-1-yl]acetic acid] | 27 |  | 
13 | COc1ccc(Sc2c(C)c(CC(=O)O)c3cc(Cl)c(F)cn23)cc1 [Example 14, [7-chloro-6-fluoro-3-(4-methoxyphenylsulfanyl)-2-methylindolizin-1-yl]acetic acid] | 23 |  | 
14 | CCS(=O)(=O)c1ccc(Sc2c(C)c(CC(=O)O)c3ccc(F)cn23)cc1 [Example 5, [3-(4-ethanesulfonylphenylsulfanyl)+fluoro-2-methylindolizin-1-yl]acetic acid] | 0.8 |  | 8.9
15 | Cc1c(CC(=O)O)c2ccc(F)cn2c1Sc1ccc(S(=O)(=O)NC2CC2)cc1 [Example 16, [3-(4-cyclopropylsulfamoylphenylsulfanyl)-6-fluoro-2-methylindolizin-1-yl]acetic acid] | 0.6 |  | 22
16 | Cc1c(CC(=O)O)c2ccc(C#N)cn2c1Cc1ccc2cc(F)ccc2n1 [Example 12, [6-cyano-3-(6-fluoroquinolin-2-ylmethyl)-2-methylindolizin-1-yl]acetic acid] | 7.2 |  | 
17 | COc1ccc(Sc2c(C)c(CC(=O)O)c3ccc(F)cn23)cc1 [Example 13, [6-fluoro-3-(4-methoxyphenylsulfanyl)-2-methylindolizin-1-yl]acetic acid] | 44 |  | 
